Laboratory results from patent US5919769A, “Fucose derivatives, drugs containing the same as active ingredient, and intermediates for producing the same” (Kanebo, Ltd, priority 1995, dated 1999).

Tests used:
P-selectin = experiment: Inhibitory test on the binding of P-selectin to sialyl Le^X (selectin-IgG chimera); details: inhibition of P-selectin IgG chimera binding to sialyl Le^X-pentaceramide
Procedure: Inhibitory test on the binding of P-selectin to sialyl Le^X :
(§1) The experiment was carried out according to the method using selectin-IgG chimera, which was reported by Foxall, C. et al. (J. Cell Biol., 117, 895-902 (1992)).
(§2) Sialyl Le^X -pentaceramide was dissolved in 50% methanol in distilled water, and the solution was put into a 96-well plate in an amount of 100 pmol/well. The plate was allowed to stand at room temperature overnight, and the solvent therein was evaporated. The plate was washed with distilled water, and subjected to blocking with 50 mM imidazole buffer (pH 7.2) containing 5% BSA (bovine serum albumin) and 1 mM calcium chloride at room temperature for one hour.
(§3) Separately, to 500-fold diluted solution of each biotinylated anti-human IgG Fc and streptavidin-alkaline phosphatase conjugate with a 50 mM imidazole buffer (pH 7.2) containing 1% BSA and 1 mM calcium chloride, P-selectin IgG chimera was added to give a final concentration of 40 μg/ml, and the mixture was incubated at room temperature for 30 minutes to give the complex solution.
(§4) A test compound was dissolved in DMSO (except that the test compound h was dissolved in distilled water) to give 10 mM aqueous solution thereof, which was serially diluted with 50 mM imidazole buffer (pH 7.2) containing 1% BSA and 1 mM calcium chloride to give the solutions in 8 various concentrations (two-fold serial dilution from 20 μM). The test compound solution in each concentration and the above complex solution were mixed in equal volume, and the mixture was incubated at room temperature for 30 minutes to give the reaction solution.
(§5) After the blocking was completed, the blocking solution in the above plate was discarded, and the plate was washed with 50 mM imidazole buffer (pH 7.2), and thereto was added the above reaction solution in an amount of 50 μl/well. The plate was incubated at 37° C. for 45 minutes, and then washed three times with 50 mM imidazole buffer (pH 7.2) and washed three times with distilled water. 1M diethanolamine (pH 9.8) containing 0.01% magnesium chloride and 1 mg/ml p-nitrophenyl phosphate was put into each well in an amount of 50 μl/well, and the plate was allowed to stand for 1 to 2 hours for color development. The absorbance at 405 nm was measured, and the binding rate (%) was calculated by the following equation, based on the absorbance (X) of the wells containing a test compound at various concentrations and the absorbance (A) of the wells containing no test compound.
(§6) IC50 was evaluated by probit method from the binding rate.

[1] = Oral toxicity observation in mice; assay type: in vivo; details: 1000 mg/kg orally, observed for one week
Source text: Moreover, the compound (I) of the present invention or a salt thereof show low toxicity. […] Therefore, the compound (I) of the present invention or a salt thereof is useful as a medicament.

[2] = Inhibitory effects on ear swelling (ovalbumin-sensitized mice); assay type: in vivo, Female BALB/c mice; details: tail vein at 2, 5 and 8 hours, 24 hours after induction
Procedure: Inhibitory effects on ear swelling:
(§7) Female BALB/c mice (6-weeks old) were sensitized by intraperitoneal injection of saline (0.5 ml) containing ovalbumin ([…]) and aluminum hydroxide gel (4 mg). Two weeks after the sensitization, a 1 mg/ml solution of ovalbumin in phosphate buffered saline (10 μl) was subcutaneously injected to the mice at both of the ears to induce the inflammatory response. In the non-inflammation group, phosphate buffered saline was subcutaneously injected to the sensitized mice instead.
(§8) The test compound was dissolved in 0.01N-NaOH-saline so as to be a concentration of 1 mg/ml, and the solution was diluted with saline. The test compound solution thus prepared was injected to the mice at the tail vein, at 2, 5 and 8 hours after the induction of inflammatory response, in a dosage volume of 0.1 ml/10 g of body weight (the treated group). In the control group, saline only was injected to the mice.
Twenty-four hours after the induction of inflammatory response, both of the ears were cut to collect a piece of 6 mm diameter, and the weight thereof was measured. The ear weight per area was used as an index for ear swelling. The inhibitory rate on ear swelling was calculated by the following equation. [formula] Wexp: Average ear weight in the treated group Wnega: Average ear weight in the non-inflammation group
Wcont: Average ear weight in the control group

L-selectin = experiment: Inhibitory test on the binding of L-selectin to sialyl Le^X (selectin-IgG chimera); details: inhibition of L-selectin IgG chimera binding to sialyl Le^X-pentaceramide
Procedure: as §1, §2, §3, §4, §5, §6
Inhibitory test on the binding of L-selectin to sialyl Le^X :
The same procedures of Experiment 1 were repeated except that L-selectin IgG chimera (40 μg/ml) was used instead of P-selectin IgG chimera (40 μg/ml).

cell infiltration [3] = experiment: Inhibitory effects on cell infiltration (MPO activity in ear tissue of Experiment 3); assay type: in vivo, Female BALB/c mice; details: tail vein at 2, 5 and 8 hours
Procedure: as §7, §8
Inhibitory effects on cell infiltration:
According to the report by Bradley, P. P. et al, (cf., Journal of Investigative Dermatology, 78, 206-209 (1982)), the activity of myeloperoxidase (hereinafter, referred to as MPO) in the tissue was used as an index for cell infiltration.
The ear tissue, the weight of which was measured in Experiment 3, was homogenized, and centrifuged. The MPO activity in the supernatant was measured by using the absorbance at 450 nm (hereinafter, referred to as OD) of o-dianisidine as an index, according to the method of Bradley, et al. (see the above reference).
The inhibitory rate on cell infiltration was calculated by the following equation. [formula] ODexp: Average OD in the treated group ODnega: Average OD in the non-inflammatory group
ODcont: Average OD in the control group

cell infiltration [4] = experiment: Inhibitory effects on the peritoneal inflammation induced by thioglycollate (cell infiltration, MPO activity); assay type: in vivo, Male BALB/C mice; details: 10 mg/kg, tail vein just before and one hour after induction, peritoneal exudate cells
Procedure: Inhibitory effects on the peritoneal inflammation induced by thioglycollate:
Male BALB/C mice (11-weeks old) were peritoneally injected with 3% thioglycollate medium (1 ml) to induce the inflammation. In the non-inflammation group, saline was peritoneally injected to the mice. Two hours thereafter, the mice were killed with […], and the peritoneal cavity was washed with a phosphate buffered saline containing 0.1% BSA, 0.5 mM EDTA, 10 U/ml heparin to collect the exudate cells. The red blood cells were lysed, and the exudate cells were lysed in 50 mM potassium phosphate buffer containing 0.5% hexadecyltrimethylammonium bromide. The MPO activity in the supernatant was measured according to the Bradley's method (see the above reference).
The test compound was dissolved in 0.0012M arginine-containing saline solution so as to be a concentration of 1 mg/ml. The test compound solution was injected to the mice at the tail vein in a dosage volume of 0.1 ml/10 g of the body weight, at just before and one hour after the induction of inflammation response (the treated group). In the control group, saline solution was injected to the mice.
The cell infiltration inhibitory rate was calculated in the same manner as in Experiment 4, by the equation 3.

Row | Structure (SMILES) | IC50 (P-selectin) [nM] | change observed after oral administration [1] | Ear swelling inhibitory rate ([2]; 0.1 mg/kg) [%] | Ear swelling inhibitory rate ([2]; 1 mg/kg) [%] | Ear swelling inhibitory rate ([2]; 10 mg/kg) [%] | IC50 (L-selectin) [nM] | Cell infiltration inhibitory rate (cell infiltration [3]; 0.1 mg/kg) [%] | Cell infiltration inhibitory rate (cell infiltration [3]; 1 mg/kg) [%] | Cell infiltration inhibitory rate (cell infiltration [3]; 10 mg/kg) [%] | Cell infiltration inhibitory rate (cell infiltration [4]) [%]
1 | CCCCCCCCCCCCCCC(CCCCCCCCCCCCCC)C(=O)N[C@H](CO[C@@H]1O[C@H]([C@H](C)O)[C@@H](O)[C@@H]1O)C(=O)N[C@@H](CCC(=O)O)C(=O)NC [compound c, [N-(2-tetradecylhexadecanoyl)-O-(α-L-fucofuranosyl)-D-seryl]-L-glutamic acid 1-methylamide] | 300 | no significant change was observed | 45 | 59 | 86 | 500 | 19 | 34 | 64 | 64
2 | CCCCCCCCCCCCCCC(CCCCCCCCCCCCCC)C(=O)N[C@H](CO[C@@H]1O[C@@H](C)[C@@H](O)[C@@H](O)[C@@H]1O)C(=O)N[C@@H](CCC(=O)O)C(=O)NC [compound k, [N-(2-tetradecylhexadecanoyl)-O-(α-L-fucopyranosyl)-D-seryl]-L-glutamic acid 1-methylamide] | 700 | – | – | – | – | 9400 | – | – | – | 37
